Data on 23 compounds can be found in patent US9096558B2, “N-sulfonylbenzamide compounds” (Pfizer Limited, priority 2010, dated 2015).

Where a name gives a salt, the structure may show the parent alone.

T1 sequence (Q15858 whole entry): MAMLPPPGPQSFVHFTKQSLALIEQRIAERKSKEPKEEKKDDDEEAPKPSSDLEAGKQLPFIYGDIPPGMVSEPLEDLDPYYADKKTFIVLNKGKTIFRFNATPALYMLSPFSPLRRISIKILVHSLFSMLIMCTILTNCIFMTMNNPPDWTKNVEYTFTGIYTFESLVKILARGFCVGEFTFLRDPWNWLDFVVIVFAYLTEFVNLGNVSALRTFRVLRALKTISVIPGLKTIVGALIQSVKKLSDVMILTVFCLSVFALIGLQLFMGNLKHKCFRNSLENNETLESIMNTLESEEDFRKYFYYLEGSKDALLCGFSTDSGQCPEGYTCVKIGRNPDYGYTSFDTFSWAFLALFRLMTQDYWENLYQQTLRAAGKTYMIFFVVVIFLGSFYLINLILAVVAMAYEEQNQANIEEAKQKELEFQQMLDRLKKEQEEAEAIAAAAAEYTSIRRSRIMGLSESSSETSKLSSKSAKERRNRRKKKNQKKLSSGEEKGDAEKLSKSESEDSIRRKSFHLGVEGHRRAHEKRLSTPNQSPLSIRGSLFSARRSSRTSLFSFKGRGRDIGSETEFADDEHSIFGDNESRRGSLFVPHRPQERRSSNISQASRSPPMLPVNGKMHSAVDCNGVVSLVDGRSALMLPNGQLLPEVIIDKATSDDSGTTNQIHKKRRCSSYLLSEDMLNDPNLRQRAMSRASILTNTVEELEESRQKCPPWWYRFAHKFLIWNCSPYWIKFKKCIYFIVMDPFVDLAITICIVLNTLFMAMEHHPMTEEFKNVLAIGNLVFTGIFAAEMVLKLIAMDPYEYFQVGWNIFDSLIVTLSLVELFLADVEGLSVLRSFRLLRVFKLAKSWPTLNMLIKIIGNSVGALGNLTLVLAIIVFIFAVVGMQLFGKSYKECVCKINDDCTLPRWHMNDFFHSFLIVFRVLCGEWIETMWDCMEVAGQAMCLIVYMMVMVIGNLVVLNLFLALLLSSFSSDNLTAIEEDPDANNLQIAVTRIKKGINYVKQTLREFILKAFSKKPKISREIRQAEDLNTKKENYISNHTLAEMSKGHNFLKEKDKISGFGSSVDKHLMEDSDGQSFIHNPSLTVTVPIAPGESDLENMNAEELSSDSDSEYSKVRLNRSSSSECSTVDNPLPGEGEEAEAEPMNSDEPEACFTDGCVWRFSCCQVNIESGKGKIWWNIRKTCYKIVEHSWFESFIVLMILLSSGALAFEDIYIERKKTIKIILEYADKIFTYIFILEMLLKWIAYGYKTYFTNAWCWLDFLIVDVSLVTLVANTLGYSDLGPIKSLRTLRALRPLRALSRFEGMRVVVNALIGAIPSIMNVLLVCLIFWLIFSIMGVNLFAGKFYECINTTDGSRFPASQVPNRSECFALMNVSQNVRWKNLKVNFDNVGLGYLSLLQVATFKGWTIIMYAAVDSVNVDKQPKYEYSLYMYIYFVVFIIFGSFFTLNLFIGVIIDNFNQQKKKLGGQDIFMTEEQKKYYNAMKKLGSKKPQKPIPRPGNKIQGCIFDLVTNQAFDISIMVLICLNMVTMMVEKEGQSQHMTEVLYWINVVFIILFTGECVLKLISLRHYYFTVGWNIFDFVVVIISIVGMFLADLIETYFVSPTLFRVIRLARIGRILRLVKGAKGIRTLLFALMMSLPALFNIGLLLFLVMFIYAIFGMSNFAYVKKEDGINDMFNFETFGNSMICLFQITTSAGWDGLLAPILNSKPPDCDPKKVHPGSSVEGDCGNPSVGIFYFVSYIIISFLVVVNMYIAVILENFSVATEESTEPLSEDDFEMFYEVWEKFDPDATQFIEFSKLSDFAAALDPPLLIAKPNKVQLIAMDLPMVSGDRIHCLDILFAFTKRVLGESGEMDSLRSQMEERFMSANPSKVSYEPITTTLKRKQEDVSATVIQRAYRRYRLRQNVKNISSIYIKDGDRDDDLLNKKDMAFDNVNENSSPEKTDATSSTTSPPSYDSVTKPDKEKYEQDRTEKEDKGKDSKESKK

This assay addresses T1, Nav1.7 (or SCN9A) channel (Homo sapiens, UniProt Q15858).
T1 construct: expressed in transfected cells
The assay is described as follows: Nav1.7 (hSCN9A) PatchXpress electrophysiology assay. The assay is classed as cell-based. To be noted: estimated IC50 calculated from single point electrophysiology data; PatchXpress platform; HEK cells stably expressing hSCN9A; held at V1/2 of inactivation; read-out: Nav1.7 EIC50. The procedure:
The ability of the compounds of formula (I) to block the Nav1.7 (or SCN9A) channel were measured using the assay described below.
Human Embryonic Kidney (HEK) cells were transfected with an hSCN9A construct using lipofectamine reagent (Invitrogen), using standard techniques. Cells stably expressing the hSCN9A constructs were identified by their resistance to G-418 (400 μg/ml). Clones were screened for expression using the whole-cell voltage-clamp technique.
HEK cells stably transfected with hSCN9A were maintained in DMEM medium supplemented with 10% heat-inactivated fetal bovine serum and 400 μg/ml G-418 in an incubator at 37° C. with a humidified atmosphere of 10% CO2. For HTS, cells were harvested from flasks by trypsinization and replated in an appropriate multi-well plate (typically 96 or 384 wells/plate) such that confluence would be achieved within 24 hours of plating. For electrophysiological studies, cells were removed from the culture flask by brief trypsinization and re-plated at low density onto glass cover slips. Cells were typically used for electrophysiological experiments within 24 to 72 hours after plating.
Cover slips containing HEK cells expressing hSCN9A were placed in a bath on the stage of an inverted microscope and perfused (approximately 1 ml/minutes) with extracellular solution of the following composition: 138 mM NaCl, 2 mM CaCl2, 5.4 mM KCl, 1 mM MgCl2, 10 mM glucose, and 10 mM HEPES, pH 7.4, with NaOH. […] The osmolarity of the extracellular and intracellular solutions was 300 mOsm/kg and 295 mOsm/kg, respectively. All recordings were made at room temperature (22-24° C.) using AXOPATCH 200B amplifiers and PCLAMP software (Axon Instruments, Burlingame, Calif.).
hSCN9A currents in HEK cells were measured using the whole-cell configuration of the patch-clamp technique (Hamill et al., 1981). Uncompensated series resistance was typically 2 to 5 mega ohms and >85% series resistance compensation was routinely achieved. As a result, voltage errors were negligible and no correction was applied. Current records were acquired at 20 to 50 KHz and filtered at 5 to 10 KHz.
HEK cells stably transfected with hSCN9A were viewed under Hoffman contrast optics and placed in front of an array of flow pipes emitting either control or compound-containing extracellular solutions. All compounds were dissolved in dimethyl sulfoxide to make 10 mM stock solutions, which were then diluted into extracellular solution to attain the final concentrations desired. […] The voltage-dependence of inactivation was determined by applying a series of depolarizing prepulses (8 sec long in 10 mV increments) from a negative holding potential. The voltage was then immediately stepped to 0 mV to assess the magnitude of the sodium current. Currents elicited at 0 mV were plotted as a function of prepulse potential to allow estimation of the voltage at which 50% of the channels were inactivated (midpoint of inactivation or V½). Compounds were tested for their ability to inhibit hSCN9A sodium channels by activating the channel with a 20 msec voltage step to 0 mV following an 8 second conditioning prepulse to the empirically determined V½. Compound effect (% inhibition) was determined by difference in current amplitude before and after application of test compounds. For ease of comparison, “estimated IC-50” (EIC50) values were calculated from single point electrophysiology data by the following equation, (tested concentration, uM)×(100-% inhibition/% inhibition). Inhibition values <20% and >80% were excluded from the calculation.
Electrophysiological assays were conducted with PatchXpress 7000 hardware and associated software (Molecular Devices Corp). All assay buffers and solutions were identical to those used in conventional whole-cell voltage clamp experiments described above. hSCN9A cells were grown as above to 50%-80% confluency and harvested by trypsinization. […]
On to `O=S(=O)(Nc1nncs1)c1cc(Cl)c(Sc2ccc(F)c(F)c2)cc1F` [Example 9, 5-chloro-4-[(3,4-difluorophenyl)thio]-2-fluoro-N-1,3,4-thiadiazol-2-ylbenzenesulfonamide], for which the IC50 was 2300 nM.
The value for `COc1cccc(Sc2cc(F)c(S(=O)(=O)Nc3nncs3)cc2Cl)c1` [Example 4, 5-chloro-2-fluoro-4-[(3-methoxyphenyl)thio]-N-1,3,4-thiadiazol-2-ylbenzenesulfonamide] was 1900 nM; that for `COc1ccc(Sc2cc(F)c(S(=O)(=O)Nc3nncs3)cc2Cl)cc1` [Example 2, 5-Chloro-2-fluoro-4-[(4-methoxyphenyl)thio]-N-1,3,4-thiadiazol-2-ylbenzenesulfonamide] was 2100 nM; that for `COc1cccc(Sc2ccc(S(=O)(=O)Nc3ncns3)cc2C#N)c1` [Example 3, 3-Cyano-4-[(3-methoxyphenyl)thio]-N-1,2,4-thiadiazol-5-ylbenzenesulfonamide] was 1000 nM.
For `O=S(=O)(Nc1nncs1)c1cc(Cl)c(Sc2cccc(C(F)(F)F)c2)cc1F` [Example 1, 5-Chloro-2-fluoro-N-1,3,4-thiadiazol-2-yl-4-{[3-(trifluoromethyl)phenyl]thio}benzenesulfonamide] the value was 930 nM.
`COc1ccccc1Sc1ccc(S(=O)(=O)Nc2ncns2)cc1C#N` [Example 12, 3-cyano-4-[(2-methoxyphenyl)thio]-N-1,2,4-thiadiazol-5-ylbenzenesulfonamide]: the IC50 was 320 nM.
`N#Cc1cc(S(=O)(=O)Nc2ncns2)ccc1Cc1ccc(C(F)(F)F)cc1-c1ccnnc1` [Example 22, 3-Cyano-4-[2-pyridazin-4-yl-4-(trifluoromethyl)benzyl]-N-1,2,4-thiadiazol-5-ylbenzenesulfonamide]: the IC50 was 140 nM.
The value for `COc1ccc(Sc2ccc(S(=O)(=O)Nc3ncns3)cc2C#N)cc1` [Example 11, 3-cyano-4-[(4-methoxyphenyl)thio]-N-1,2,4-thiadiazol-5-ylbenzenesulfonamide] was greater than 3000 nM.
The value for `N#Cc1cc(S(=O)(=O)Nc2ncns2)ccc1Sc1ccccc1C(F)(F)F` [Example 16, 3-Cyano-N-1,2,4-thiadiazol-5-yl-4-{[2-(trifluoromethyl)phenyl]thio}benzenesulfonamide] was 930 nM; that for `N#Cc1cc(S(=O)(=O)Nc2ncns2)ccc1Sc1ccccc1F` [Example 15, 3-Cyano-4-[(2-fluorophenyl)thio]-N-1,2,4-thiadiazol-5-ylbenzenesulfonamide] was 920 nM; that for `O=S(=O)(Nc1nncs1)c1cc(Cl)c(Sc2ccccc2F)cc1F` [Example 7, 5-chloro-2-fluoro-4-[(2-fluorophenyl)thio]-N-1,3,4-thiadiazol-2-ylbenzenesulfonamide] was 3700 nM.
The value for `O=S(=O)(Nc1nncs1)c1cc(Cl)c(Sc2ccc(C(F)(F)F)cc2)cc1F` [Example 10, 5-chloro-2-fluoro-N-1,3,4-thiadiazol-2-yl-4-{[4-(trifluoromethyl)phenyl]thio}benzenesulfonamide] was 5200 nM; that for `Nc1cc(-c2cc(C(F)(F)F)ccc2Sc2cc(F)c(S(=O)(=O)Nc3ncccn3)cc2Cl)ccn1` [Example 24, 4-{[2-(2-Aminopyridin-4-yl)-4-(trifluoromethyl)phenyl]thio}-5-chloro-2-fluoro-N-pyrimidin-2-ylbenzenesulfonamide] was 72 nM.
Turning to `COc1cc(C(F)(F)F)ccc1Cc1ccc(S(=O)(=O)Nc2ncns2)cc1C#N` [Example 21, 3-Cyano-4-[2-methoxy-4-(trifluoromethyl)benzyl]-N-1,2,4-thiadiazol-5-ylbenzenesulfonamide], the IC50 was 5.8 nM.
For `N#Cc1cc(S(=O)(=O)Nc2ncns2)ccc1Sc1ccc(C(F)(F)F)cc1` [Example 14, 3-cyano-N-1,2,4-thiadiazol-5-yl-4-{[4-(trifluoromethyl)phenyl]thio}benzenesulfonamide] the value was 190 nM; for `O=S(=O)(Nc1nncs1)c1cc(Cl)c(Sc2cccc(F)c2)cc1F` [Example 6, 5-chloro-2-fluoro-4-[(3-fluorophenyl)thio]-N-1,3,4-thiadiazol-2-ylbenzenesulfonamide], 3300 nM.
The value for `COc1ccccc1Sc1cc(F)c(S(=O)(=O)Nc2nncs2)cc1Cl` [Example 8, 5-chloro-2-fluoro-4-[(2-methoxyphenyl)thio]-N-1,3,4-thiadiazol-2-ylbenzenesulfonamide] was 250 nM; that for `O=S(=O)(Nc1nncs1)c1cc(Cl)c(Sc2ccc(C(F)(F)F)cc2-c2ccnnc2)cc1F` [Example 19, 5-Chloro-2-fluoro-4-{[2-pyridazin-4-yl-4-(trifluoromethyl)phenyl]thio}-N-1,3,4-thiadiazol-2-ylbenzenesulfonamide] was 45 nM.
The value for `Nc1cc(-c2cc(C(F)(F)F)ccc2Sc2cc(F)c(S(=O)(=O)Nc3nncs3)cc2Cl)ccn1` [Example 20, 4-{[2-(2-Aminopyridin-4-yl)-4-(trifluoromethyl)phenyl]thio}-5-chloro-2-fluoro-N-1,3,4-thiadiazol-2-ylbenzenesulfonamide hydrochloride] was 33 nM.
For `N#Cc1cc(S(=O)(=O)Nc2ncns2)ccc1Sc1cccc(C(F)(F)F)c1` [Example 13, 3-cyano-N-1,2,4-thiadiazol-5-yl-4-{[3-(trifluoromethyl)phenyl]thio}benzenesulfonamide], the IC50 was 840 nM.
`N#Cc1cc(S(=O)(=O)Nc2ncns2)ccc1Sc1ccc(F)c(F)c1` [Example 17, 3-Cyano-4-[(3,4-difluorophenyl)thio]-N-1,2,4-thiadiazol-5-ylbenzenesulfonamide]: the IC50 is 2200 nM.
The value for `N#Cc1cc(S(=O)(=O)Nc2ncns2)ccc1Sc1ccc(C(F)(F)F)cc1-c1ccnnc1` [Example 18, 3-Cyano-4-{[2-pyridazin-4-yl-4-(trifluoromethyl)phenyl]thio}-N-1,2,4-thiadiazol-5-ylbenzenesulfonamide] was 70 nM; that for `O=S(=O)(Nc1nncs1)c1cc(Cl)c(Sc2ccccc2C(F)(F)F)cc1F` [Example 5, 5-chloro-2-fluoro-N-1,3,4-thiadiazol-2-yl-4-{[2-(trifluoromethyl)phenyl]thio}benzenesulfonamide] was 5080 nM.
